Test results from US10294202B2, “Pyrrolidinones as herbicides” (FMC Corporation, priority 2013, dated 2019).

How the values were obtained:
[1] = test system: barnyardgrass; assay: Test A pre-/postemergence herbicide test; type: in vivo, Echinochloa crus-galli
Procedure, shortened: (§1)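 Scoring was visual, relative to untreated controls, on a 0–100 scale after about 10 greenhouse days. Preemergence treatment used a directed soil spray over seeded loam/sand; postemergence treatment targeted one- to two-leaf plants of 2–10 cm.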

[2] = test system: pigweed; assay: Test A pre-/postemergence herbicide test; type: in vivo, Amaranthus retroflexus
Procedure, shortened: as §1

[3] = test system: wheat; assay: Test A pre-/postemergence herbicide test; type: in vivo, Triticum aestivum; conditions: Postemergence
Procedure, shortened: as §1

[4] = test system: ducksalad; assay: Test B flooded paddy test; type: in vivo, Heteranthera limosa; conditions: 500 g ai/ha, Flood; scale of 0 to 100 where 0 is no effect and 100 is complete control
Procedure, shortened: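 2-leaf plants; flood 3 cm over soil; compound into paddy water; depth held. Greenhouse 13–15 d. Visual rating vs controls, 0 (no effect) to 100 (complete control); dash = not tested.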

[5] = test system: blackgrass; assay: Test C pre-/postemergence herbicide test; type: in vivo, Alopecurus myosuroides
Procedure, shortened: (§2)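 Response scores range from 0, meaning no effect, to 100, meaning complete control, assigned visually by comparison with controls roughly two weeks (13 to 15 days) after spraying. Applications were made preemergence to seeded loam–sand soil and postemergence to 1- to 4-leaf plants.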

[6] = test system: ryegrass, Italian; assay: Test C pre-/postemergence herbicide test; type: in vivo, Lolium multiflorum
Procedure, shortened: as §2

[7] = test system: wheat (winter wheat); assay: Test C pre-/postemergence herbicide test; type: in vivo, Triticum aestivum; conditions: for Plant response rating, Wheat: Postemergence; for Wheat plant response rating / Plant response rating (scale of 0 to 100), Wheat: Preemergence
Procedure, shortened: as §2

[8] = test system: galium; assay: Test C pre-/postemergence herbicide test; type: in vivo, Galium aparine; conditions: Preemergence; for Plant response rating, Galium: 125 g ai/ha; for Plant response rating (scale of 0 to 100), Galium: 250 g ai/ha
Procedure, shortened: as §2

[9] = test system: nutsedge, yellow; assay: Test C pre-/postemergence herbicide test; type: in vivo, Cyperus esculentus
Procedure, shortened: as §2

[10] = test system: oilseed rape; assay: Test C pre-/postemergence herbicide test; type: in vivo, Brassica napus
Procedure, shortened: as §2

[11] = Postemergence, 125 g ai/ha, visual rating on 0 to 100 scale (0 no effect, 100 complete control), approx. 10 days
[12] = Postemergence, 500 g ai/ha, 0 to 100 scale (0 no effect, 100 complete control)
[13] = Preemergence, 125 g ai/ha, 0 to 100 scale where 0 is no effect and 100 is complete control
[14] = Preemergence, 500 g ai/ha, visual rating on 0 to 100 scale (0 no effect, 100 complete control)
[15] = 125 g ai/ha, visual rating on 0 to 100 scale (0 no effect, 100 complete control), approx. 10 days
[16] = 500 g ai/ha, 0 to 100 scale (0 no effect, 100 complete control)
[17] = Postemergence, 31 g ai/ha, scale 0 to 100 (0 no effect, 100 complete control)
[18] = Postemergence, 62 g ai/ha, scale 0 (no effect) to 100 (complete control)
[19] = Postemergence, 125 g ai/ha, scale 0 to 100 (0 no effect, 100 complete control)
[20] = Postemergence, 250 g ai/ha, scale 0 to 100 (0 no effect, 100 complete control)
[21] = Preemergence, 31 g ai/ha, scale 0 to 100, 0 is no effect and 100 is complete control
[22] = Preemergence, 62 g ai/ha, scale 0 to 100 (0 no effect, 100 complete control)
[23] = Preemergence, 125 g ai/ha, scale 0 to 100 (0 no effect, 100 complete control)
[24] = 31 g ai/ha, scale 0 to 100 (0 no effect, 100 complete control)
[25] = 62 g ai/ha, scale 0 (no effect) to 100 (complete control)
[26] = 125 g ai/ha, scale 0 to 100 (0 no effect, 100 complete control)
[27] = 250 g ai/ha, scale 0 to 100 (0 no effect, 100 complete control)
[28] = 31 g ai/ha, scale 0 to 100, 0 is no effect and 100 is complete control
[29] = 62 g ai/ha, scale 0 to 100 (0 no effect, 100 complete control)
[30] = scale 0 to 100 (0 no effect, 100 complete control)

CN1CC(c2cccc(C(F)(F)F)c2)C(C(=O)Nc2cccc(F)c2F)C1=O (stereo not drawn) [Compound 305]
Plant response rating, Barnyardgrass [1, 11]: 80 | Plant response rating, Barnyardgrass [1, 12]: 90 | Plant response rating, Barnyardgrass [1, 13]: 80 | Barnyardgrass plant response rating [1, 14]: 90 | Plant response rating, Pigweed [2, 11]: 60 | Plant response rating, Pigweed [2, 12]: 70 | Plant response rating, Pigweed [2, 13]: 0 | Pigweed plant response rating [2, 14]: 40 | Plant response rating, Wheat [3, 15]: 60 | Plant response rating, Wheat [3, 16]: 70 | Plant response rating, Ducksalad [4]: 100 | Plant response rating, Blackgrass [5, 17]: 0 | Plant response rating, Blackgrass [5, 18]: 0 | Plant response rating, Blackgrass [5, 19]: 30 | Plant response rating, Blackgrass [5, 20]: 10 | Blackgrass plant response rating [5, 21]: 60 | Blackgrass plant response rating [5, 22]: 75 | Plant response rating, Blackgrass [5, 23]: 70 | Plant response rating (scale of 0 to 100), Blackgrass ([5]; Preemergence, 250 g ai/ha): 90 | Plant response rating, Ryegrass, Italian [6, 17]: 0 | Plant response rating, Ryegrass, Italian [6, 18]: 0 | Plant response rating, Ryegrass, Italian [6, 19]: 0 | Plant response rating, Ryegrass, Italian [6, 20]: 45 | Ryegrass, Italian plant response rating [6, 21]: 15 | Ryegrass, Italian plant response rating [6, 22]: 50 | Plant response rating, Ryegrass, Italian [6, 23]: 50 | Plant response rating (scale of 0 to 100), Ryegrass, Italian ([6]; Preemergence, 250 g ai/ha): 80 | Plant response rating, Wheat [7, 24]: 0 | Plant response rating, Wheat [7, 25]: 0 | Plant response rating, Wheat [7, 26]: 0 | Plant response rating, Wheat [7, 27]: 5 | Wheat plant response rating [7, 28]: 45 | Wheat plant response rating [7, 29]: 90 | Plant response rating (scale of 0 to 100), Wheat ([7]; 250 g ai/ha): 90 | Galium plant response rating [8, 28]: 80 | Galium plant response rating [8, 29]: 80 | Plant response rating, Galium [8, 30]: 90 | Plant response rating (scale of 0 to 100), Galium [8]: 90 | Plant response rating, Nutsedge, Yellow [9, 17]: 0 | Plant response rating, Nutsedge, Yellow [9, 18]: 0 | Plant response rating, Nutsedge, Yellow [9, 19]: 0 | Plant response rating, Nutsedge, Yellow [9, 20]: 0 | Nutsedge, Yellow plant response rating [9, 21]: 0 | Nutsedge, Yellow plant response rating [9, 22]: 0 | Plant response rating, Nutsedge, Yellow [9, 23]: 0 | Plant response rating (scale of 0 to 100), Nutsedge, Yellow ([9]; Preemergence, 250 g ai/ha): 100 | Plant response rating, Oilseed Rape [10, 17]: 0 | Plant response rating, Oilseed Rape [10, 18]: 0 | Plant response rating, Oilseed Rape [10, 19]: 0 | Plant response rating, Oilseed Rape [10, 20]: 0 | Oilseed Rape plant response rating [10, 21]: 20 | Oilseed Rape plant response rating [10, 22]: 60 | Plant response rating, Oilseed Rape [10, 23]: 80 | Plant response rating (scale of 0 to 100), Oilseed Rape ([10]; Preemergence, 250 g ai/ha): 90

CN1CC(c2ccc(C(F)(F)F)cc2)C(C(=O)Nc2cccc(F)c2F)C1=O (stereo not drawn) [Compound 306]
Plant response rating, Barnyardgrass [1, 11]: 80 | Plant response rating, Barnyardgrass [1, 12]: 80 | Plant response rating, Barnyardgrass [1, 13]: 90 | Barnyardgrass plant response rating [1, 14]: 90 | Plant response rating, Pigweed [2, 11]: 70 | Plant response rating, Pigweed [2, 12]: 80 | Plant response rating, Pigweed [2, 13]: 80 | Pigweed plant response rating [2, 14]: 90 | Plant response rating, Wheat [3, 15]: 50 | Plant response rating, Wheat [3, 16]: 60 | Plant response rating, Ducksalad [4]: 100 | Plant response rating, Blackgrass [5, 17]: 0 | Plant response rating, Blackgrass [5, 18]: 0 | Plant response rating, Blackgrass [5, 19]: 5 | Plant response rating, Blackgrass [5, 20]: 5 | Blackgrass plant response rating [5, 21]: 0 | Blackgrass plant response rating [5, 22]: 30 | Plant response rating, Blackgrass [5, 23]: 60 | Plant response rating (scale of 0 to 100), Blackgrass ([5]; Preemergence, 250 g ai/ha): 90 | Plant response rating, Ryegrass, Italian [6, 17]: 0 | Plant response rating, Ryegrass, Italian [6, 18]: 0 | Plant response rating, Ryegrass, Italian [6, 19]: 5 | Plant response rating, Ryegrass, Italian [6, 20]: 20 | Ryegrass, Italian plant response rating [6, 22]: 40 | Plant response rating, Ryegrass, Italian [6, 23]: 55 | Plant response rating (scale of 0 to 100), Ryegrass, Italian ([6]; Preemergence, 250 g ai/ha): 70 | Plant response rating, Wheat [7, 24]: 0 | Plant response rating, Wheat [7, 25]: 0 | Plant response rating, Wheat [7, 26]: 0 | Plant response rating, Wheat [7, 27]: 0 | Wheat plant response rating [7, 29]: 50 | Plant response rating (scale of 0 to 100), Wheat ([7]; 250 g ai/ha): 85 | Galium plant response rating [8, 28]: 90 | Galium plant response rating [8, 29]: 60 | Plant response rating, Galium [8, 30]: 90 | Plant response rating (scale of 0 to 100), Galium [8]: 90 | Plant response rating, Nutsedge, Yellow [9, 17]: 0 | Plant response rating, Nutsedge, Yellow [9, 18]: 0 | Plant response rating, Nutsedge, Yellow [9, 20]: 0 | Nutsedge, Yellow plant response rating [9, 21]: 0 | Nutsedge, Yellow plant response rating [9, 22]: 0 | Plant response rating, Nutsedge, Yellow [9, 23]: 0 | Plant response rating (scale of 0 to 100), Nutsedge, Yellow ([9]; Preemergence, 250 g ai/ha): 10 | Plant response rating, Oilseed Rape [10, 17]: 0 | Plant response rating, Oilseed Rape [10, 18]: 50 | Plant response rating, Oilseed Rape [10, 19]: 40 | Plant response rating, Oilseed Rape [10, 20]: 70 | Oilseed Rape plant response rating [10, 21]: 50 | Oilseed Rape plant response rating [10, 22]: 70 | Plant response rating, Oilseed Rape [10, 23]: 75 | Plant response rating (scale of 0 to 100), Oilseed Rape ([10]; Preemergence, 250 g ai/ha): 75
